From patent publication US6387910B1, “Drug of improving optic nerve head circulation disorder” (Akzo Nobel N.V., priority 1998, dated 2002)

Key:
[1] = tested on: blood flow in the optic nerve head; assay: Blood flow in the optic nerve head by laser speckle technique (rate of change of NB value); assay type: in vivo; settings: rabbit, i.v.
Description: The optic nerve head circulation improving activity was measured by using as an index the rate of change of NB value as mentioned hereinafter.
1) Measurement of Blood Flow in the Optic Nerve Head by Laser Speckle Technique
(§1) Male New Zealand White rabbits (weighing 2.3-3.1 kg) were housed in an OSHIDA-type solid box and the left auricula was locally anesthetized with Xylocaine Spray (trademark, manufactured by Fujisawa Pharmaceutical) and Xylocaine Jelly (trademark, manufactured by Fujisawa Pharmaceutical), and a catheter (Polyethylene Tube SP28, manufactured by Natsume) were inserted into the post auricular artery for measuring the blood pressure and the heart rate, and the blood pressure and the heart rate were continuously recorded with a recorder (WT-645G, manufactured by Nihon-Koden). Under the local anesthesia, a catheter for administering the test drug (Polyethylene Tube SP31, manufactured by Natsume) was likewise inserted into the right post auricular vein of the animal.
The blood flow of the optic nerve head was measured by selecting a portion having no surface blood vessel at the right optic nerve head [0.42×0.42 mm (field angle 30°) with an eyegrounds circulation analyzer (Laser speckle circulation analyzer-II: LSCA-II), measuring the mean value of the quantitative index of blurring in whole field (100×100) [NB value (normalized blur value)], and calculating the rate of change (%) of the NB value by the following equation: [formula]
By the way, the test drug was prepared by adding a 20% dimethylacetamide solution containing 2% tartaric acid to a drug to be tested so as to adjust the ad ministration volume thereof to 0.1 ml/kg and dissolving the mixture by adding thereto a hot water.
The change of the value between the data after administration of drug or vehicle and the data before the administration of drug or vehicle was determined, and for each item, the mean values and standard deviation in six animals in each test were determined, and the results are shown in the accompanying FIG. 1 to FIG. 8. […]

[2] = tested on: blood flow in the optic nerve head; settings: literature: Nichi-Gan Kaishi Vol. 100, No. 12, p. 923, 1996; cited from earlier work
[3] = tested on: blood pressure and heart rate; assay: Mean blood pressure and heart rate in rabbits (post auricular artery catheter); assay type: in vivo; settings: rabbit
Text: as §1
(§2) The change of the value between the data after administration of drug or vehicle and the data before the administration of drug or vehicle was determined, and for each item, the mean values and standard deviation in six animals in each test were determined, and the results are shown in the accompanying FIG. 1 to FIG. 8. The significant test of the test drug was done by t-test at each time of measurement compared to the data in the control group administered with vehicle. The significant standards are indicated separately in the group of less than 5% and the group of less than 1%.

intraocular pressure = assay: Measurement of intraocular pressure in rabbits (pneumatonometer); assay type: in vivo; settings: rabbit; 0.003, 0.01 and 0.03 mg/kg, i.v.
Description: as §2, with “2) Measurement of Intraocular Pressure The intraocular pressure was measured on the left eye at each time when the above NB values were measured after the administration of drug or vehicle (excepting 5 minutes after administration, the intraocular pressure was not measured) after dropping a 0.4% solution of Benoxil (trademark, manufactured by Santen Pharmaceutical) by using a calibrated pneumatonometer (Alcon Application Pneumatonograph, manufactured by Nippon Alcon). The change” for “The change”

[4] = tested on: side effects (objective and subjective symptoms); assay: Side effect-manifestation in aged and younger persons; assay type: in vivo; settings: human
[5] = Measurement of plasma concentration of drug in rabbit (gas chromatography); assay type: in vivo; settings: Lomerizine hydrochloride 0.03 mg/kg, i.v.
Description: Under the same conditions as in the above Example 1, the plasma concentration of Lomerizine in the groups administered with Lomerizine hydrochloride (0.03 mg/kg, i.v.) 5, 15, 30 and 60 minutes after the administration of the drug as follows.
Male New Zealand White rabbits (weighing 2.5-3.5 kg, 3 animals per group) were placed in an OSHIDA-type solid box. A solution of Lomerizine hydrochloride (in an amount so as to be 0.03 mg/kg) in a 20% dimethylacetamide containing 2% tartaric acid was prepared and was administered to the right post auricular vein of the animals. Thereafter, blood sampling was done from left post auricular vein 5, 15, 30 and 60 minutes after the administration of test drug. The collected blood sample was centrifuged (4° C., 3000 rpm×10 minutes) to obtain a plasma sample, and then the amount of Lomerizine in the plasma was measured by gas chromatography.
The gas chromatography was carried out under the following conditions:
GC-14B type gas chromatograph (manufactured by Shimadzu Corporation)
FTD Detector (Shimadzu FTD-8, manufactured by Shimadzu Corporation)
Conditions for Measurement:
Column: Shimadzu CBP1-M25-025 (25m×0.2mm, thickness of membrane: 0.25 μm)
Injection port temperature: 310° C.
Column temperature: 285° C.
Detector temperature: 310° C.
Carrier gas: Helium (2.30 kg/m^2)
Make up gas: Helium (flow rate: 40 ml/minute)
H2 flow rate: 3.8 ml/minute
Air flow rate: 160 ml/minute

[6] = 0.03 mg/kg, i.v., 15 minutes after the administration

Concentration of Lomerizine in Plasma, Mean ± Standard deviation ([5]; 5 minutes after administration) [ng/mL] | Concentration of Lomerizine in Plasma, Mean ± Standard deviation ([5]; 15 minutes after administration) [ng/mL] | Concentration of Lomerizine in Plasma, Mean ± Standard deviation ([5]; 30 minutes after administration) [ng/mL] | Compound | increasing activity of blood flow in the optic nerve head (rate of change of NB value) vs vehicle ([1]; 0.03 mg/kg, 30 minutes after the administration) | increasing activity of blood flow in the optic nerve head (rate of change of NB value) vs vehicle ([1]; 0.003, 0.01 and 0.03 mg/kg, significant 5 minutes after the administration) | increasing activity of blood flow in the optic nerve head (rate of change of NB value) vs vehicle ([1]; 0.003 and 0.03 mg/kg, 15 minutes after the administration) | action on the optic nerve head (blood flow) [2] | heart rate vs vehicle [3, 6] | hypotensive activity (mean blood pressure) vs vehicle [3, 6] | hypotensive activity (mean blood pressure) vs vehicle ([3]; 0.01 and 0.03 mg/kg, i.v., 5 minutes after the administration) | heart rate vs vehicle ([3]; 0.01 and 0.03 mg/kg, i.v., 30 minutes after the administration) | heart rate vs vehicle ([3]; all groups (0.003, 0.01 and 0.03 mg/kg, i.v.), 5 minutes after the administration) | action on the intraocular pressure (intraocular pressure) | side effect-manifestation in aged persons (65-85 years old) compared with younger persons (15-64 years old) [4]
 |  |  | COC(=O)C1=C(C#N)NC(C)=C(C(=O)OC(C)C)C1c1cccc([N+](=O)[O-])c1 (centres unmarked) [Nilvadipine] | significant increasing activity | higher increasing activity | significant increasing activity | an activity of increasing blood flow | significant increase | significant hypotensive activity | significant hypotensive activity | significant increase | significant increase | no clear action | 
19.8 ± 6.5 | 8.1 ± 2.4 | 4.9 ± 2.4 | Lomerizine |  |  |  |  |  |  |  |  |  |  | not so different
